{"source": "patent US20150087722A1", "about": "“TREATMENT FOR BREAST TUMOR CELL METASTASIS” (China Medical University, priority 2012, published 2015)", "key": {"[1]": {"test_system": "ROS content in breast tumor cells MDA-MB-231", "assay": "intracellular reactive oxygen species method", "format": "cell-based, human", "experimental": "In FIG. 12, the reactive oxygen species method was used to detect the effect of increased treatment doses of the compound II on the ROS content in breast tumor cells, and a photograph was taken at a 200× field under the fluorescence microscope. In the intracellular reactive oxygen species method, the cells were planted in a 24-well plate (5×10^4 cells/well). The next day after the cells were adhered to the wall, the cells were cultured in a serum free DMEM culture medium at an atmosphere of 5% CO2 in an incubator at 37° C. for 12 h. The compound II was added into the 1% FBS-DMEM culture medium, and the cells were cultured in the culture medium for 2 h. The cells were then washed with PBS. 100 ng/mL LPS was added to react with the cells, and then the cells were washed with PBS. Culture medium including 10 μM fluorescent probe (DCFH2-DA) was supplied and then the cells were cultured for 30 min at 37° C. The cells were washed with PBS for three times so as to remove the residual stain. Finally the cells were lysed using 0.25% Tritox-100. The absorbance was measured by a fluorescence spectrometer, where the excitation wavelength was set as 485±20 nm, and the […] was set as 530±25 nm."}, "[2]": {"test_system": "Ovarian Tumor Cell (SKOV3 cell strain)", "assay": "MTT cell viability assay", "format": "cell-based", "conditions": "Homo sapiens, SK-OV-3"}, "[3]": {"test_system": "Normal Rat Macrophage Cell (RAW264.7 cell strain)", "assay": "MTT cell viability assay", "format": "cell-based"}, "[4]": {"test_system": "MDA-MB-231 inoculated nude mice", "assay": "nude mice xenograft tumor model", "format": "in vivo, nude mice of BALB/c-nu species", "conditions": "about 0.75 mg/Kg injected everyday", "experimental": "The in vivo experiment was performed in a nude mice xenograft tumor model. The experimental animals were nude mice of BALB/c-nu species commercially obtained from the National Laboratory Animal Center (NLAC). The nude mice were raise in a germ-free box and the light application time was 7:00-19:00. Filtered air, sterilized water and feed were supplied to and naturally eaten by the nude mice. Female nude mice which matured in 8-10 weeks were used to perform the experiment. The breast tumor cell (2×10^6/100 μl) was injected into one side of each back part of 60 nude mice in a hypodermic injection manner. After about 10 days 1-3 mm tumor was grown on each back of the nude mice, the nude mice were randomly divided into 4 groups. Three groups of nude mice were fed with the active ingredient Antrodia camphorata in different doses. The tumor growth was observed and photographed every day. The tumor volume was measured every three days. The volume was calculated according to the equation provided by Osborne et al in 1987. The experimental animals were divided into the control group (not treated), the solvent group (only physiological saline was injected) and a group injected with the compound II (the dose was about 0.75 mg/Kg). The injection was performed everyday, and the animals were fed in normal conditions and photographed for record, so as to compare the tumor growth condition of experimental animals in each group."}, "[5]": {"test_system": "MMP-9 and MMP2 generated by cells induced by TNF-α", "assay": "Zymography enzyme activity assay of cells stimulated by TNF-α", "format": "cell-based", "conditions": "20 μM, 10 ng/mL TNF-α", "experimental": "In the Zymography enzyme activity assay, the cells (1×10^6) were planted in a 6-well plate. The next day after the cells were adhered to the wall, the cells were cultured in a serum free DMEM culture medium at an atmosphere of 5% CO2 in an incubator at 37° C. for 24 h. The compound II in different doses were added into the DMEM culture medium. In other test groups, the compound I was added, TNF-α/TGF-β were added or the compound I and TNF-α/TGF-β were added into the DMEM culture medium, wherein the concentration of compound I and TNF-α/TGF-β were […] and 10 ng/ml, respectively. The cells were cultured in the culture medium for 2 h and then washed with PBS. The cell culture medium was putted into a microcentrifuge tube and centrifuged for 10 min at 1500 rpm. The supernatant was taken to perform a protein gel electrophoresis (SDS-PAGE), so as to separate the proteins. Afterwards, the Gelatin or Casein was regarded as the substrate to analysis the enzyme activity of the proteins. Referring to FIG. 20, the Zymography enzyme activity assay was performed to detect the effect of the compound II on the enzyme activity of MMP-9 and MMP2 generated by cells induced and stimulated by 10 ng/mL TNF-α. The Zymography enzyme activity assay was described as the test example 4-1. […] Cells in the test groups included no the compound II. […]"}, "[6]": {"test_system": "Skin Tumor Cell (A2058 cell strain)", "assay": "MTT cell viability assay", "format": "cell-based", "conditions": "Homo sapiens"}}, "data": [{"smiles": "COC1=C(OC)C(=O)C(C)=C(C)C1=O", "note": "[compound II]", "values": [{"measurement": "increasing trend of reactive oxygen species", "setting": "[1]; MDA-MB-231, with antioxidant NAC added at the same time", "value": "not obvious"}, {"measurement": "content of reactive oxygen species", "setting": "[1]; MDA-MB-231, with increasing treatment doses", "value": "increased accordingly"}, {"measurement": "IC50", "setting": "[2]", "value": 15.3, "unit": "µM"}, {"measurement": "IC50", "setting": "[3]", "value": 25.5, "unit": "µM"}, {"measurement": "tumor a period after injection", "setting": "[4]", "value": "completely disappears"}, {"measurement": "tumor volume versus control group", "setting": "[4]", "value": "obviously smaller"}, {"measurement": "tumor weight", "setting": "[4]; control 0.455±0.328", "value": "0.039±0.028"}, {"measurement": "enzyme activity of MMP2", "setting": "[5]", "value": "no enzyme activity"}, {"measurement": "IC50", "setting": "[6]", "value": 23.6, "unit": "µM"}]}]}
